Test results reported in patent US20190153538A1, “GENE EXPRESSION BIOMARKERS FOR PERSONALIZED CANCER CARE TO EPIGENETIC MODIFYING AGENTS” (Oryzon Genomics, S.A., priority 2015, published 2019).
Structures can show the parent of a compound that is named as a salt.

What was measured:
[1] = test system: 19 small cell lung cancer cell lines; assay: Cell response to LSD1 inhibition: compound potency determination in SCLC cell line panel; format: cell-based; settings: 4 days culture
Experimental: The compound potency determination was performed by culturing 19 small cell lung cancer cell lines […] for 4 days at 37 degrees C. at 5% CO2 in humidified incubators in the presence of serially diluted (trans)-N1-((1R,2S)-2-phenylcyclopropyl)cyclohexane-1,4-diamine bis-hydrochloride.
As a positive control for cytotoxicity the Hsp90 inhibitor 17-N-allylamino-17-demethoxygeldanamycin (17-AAG, a geldanamycin analogue) was used as positive control in serial dilution. Each of the cell lines was propagated and tested in distinct optimized media as recommended by ATCC or cell line source.
Small cell lung cancer cell lines can be categorized as “classic” or “variant”, based on their enzymatic activities, cellular morphologies, and growth phenotypes (Desmond et al., Cancer Res (1985) 45(6):2913-2923; Shoemaker R. H., Nature Reviews Cancer […] 6:813-823). Classic cells lines express elevated levels of L-dopa decarboxylase, bombesin-like immunoreactivity, neuron-specific enolase, and the brain isozyme of creatine kinase; variant cell lines continue to express neuron-specific enolase and the brain isozyme of creatine kinase, but have undetectable levels of L-dopa decarboxylase and bombesin-like immunoreactivity. Unlike classic cell lines, some variant cell lines are amplified for and have increased expression of the c-myc (MYC)oncogene.
Depending on their responses to (trans)-N1-((1R,2S)-2-phenylcyclopropyl)cyclohexane-1,4-diamine bis-hydrochloride, cell lines are classified as either “sensitive” [5], defined as having EC50<0.05 μM, or “resistant”, defined as having EC50>=0.05 μM [R].

H510A xenograft = assay: In vivo tumor growth inhibition, NCI-H510A xenograft model; design: species or system athymic nude mice; settings: 40 μg per kg five days on/two days off, after 21 days of dosing, compared to untreated controls
Experimental: 7-8-week old athymic nude mice animals were injected with 5×10^6 H510A cells resuspended in 100 μL of 1:1 mixture of Matrigel® matrix (Corning Inc., Tewksbury/MA, C. S. Hughes et al., Proteomics (2010) 10(9):1886-90) and PBS. Tumors were staged at 200-300 mm^3 animals and distributed into dosing groups. (trans)-N1-((1R,2S)-2-phenylcyclopropyl)cyclohexane-1,4-diamine was administered at a dose of 40 μg per kg (upk) five days on/two days off until end of study. Tumor volume was measure biweekly using a digital caliber. The study was concluded when mean tumor volume within control group reached 2000 mm^3 or 28 days post-staging. Statistical analysis was performed using unpaired t-test.

Row | Compound | Cell-based response, classic versus variant SCLC cell lines ([1]; p-value 0.0055) | variant cell lines [V] that are resistant ([1]; resistant = EC50>=0.05 μM) | classic cell lines [C] that are sensitive ([1]; sensitive = EC50<0.05 μM) | tumor growth inhibition (H510A xenograft)
1 | N[C@H]1CC[C@H](N[C@@H]2C[C@H]2c2ccccc2)CC1 [(trans)-N1-((1R,2S)-2-phenylcyclopropyl)cyclohexane-1,4-diamine bis-hydrochloride] | greater in classic SCLC cell lines compared to variant SCLC cell lines | 7 out of 8 | 9 out of 11 | 
2 | N[C@H]1CC[C@H](N[C@@H]2C[C@H]2c2ccccc2)CC1 [(trans)-N1-((1R,2S)-2-phenylcyclopropyl)cyclohexane-1,4-diamine] |  |  |  | 34%
